In one test the test system is Colon26 tumor cells. In words: Colon26 tumor growth, combination with cyclophosphamide (Example 8). It counts as in vivo, Balb/c mice. As to conditions: anti-SEMA4D 50 mg/kg IP weekly; cyclophosphamide 50 mg/kg IP days 12 and 20; endpoint 1000 mm3.
Another test relates to Colon26. Nature of the test: Summary of tumor regressions in Colon26 model (Example 13, FIG. 13). Format: in vivo, mice. The following applies: summary of experiments (FIG. 13). From the text: Experimental Design. […] The experiment design of the respective experiments is summarized in the above Examples.

Results on one compound are retold here after patent US12070500B2, “Use of semaphorin-4D antibodies in combination with an immune modulating therapy to inhibit tumor growth and metastasis” (Vaccinex, Inc., priority 2013, dated 2024).

Method for Colon26 tumor cells: Experimental Design. 5×10^5 Colon26 tumor cells were implanted subcutaneously into the flank of female Balb/c mice. […] There were 20 mice per group. Tumors were measured with calipers 3×/week starting 5 days post implant. Animals were sacrificed when tumor volume reached 1000 mm3.
Tumor growth was measured by calipers and measurements were used to calculate tumor volume using the formula (w^2×l)/2, where w=width, smaller measurement, and l=length, in mm, of the tumor.
Regression is the lack of palpable tumor, defined by a tumor measuring <50 mm3 for at least two consecutive measurements.

Turning to `O=P1(N(CCCl)CCCl)NCCCO1` (centres unmarked) [cyclophosphamide], in the test on Colon26 tumor cells, the “Tumor Growth Delay (TGD)” value came to 96%. The tumor regression with Colon26 was found to be 10%.
